Data: patent US12280048B2, “Amorphous solid dispersions” (priority 2016, dated 2025)
In brackets after ≈: the same amount, converted by molar mass.

Legend:
[1] = molecular target: T1, 5-HT2C receptors (Homo sapiens, UniProt P28335); settings: cited from earlier work
T1 sequence (P28335 33-458): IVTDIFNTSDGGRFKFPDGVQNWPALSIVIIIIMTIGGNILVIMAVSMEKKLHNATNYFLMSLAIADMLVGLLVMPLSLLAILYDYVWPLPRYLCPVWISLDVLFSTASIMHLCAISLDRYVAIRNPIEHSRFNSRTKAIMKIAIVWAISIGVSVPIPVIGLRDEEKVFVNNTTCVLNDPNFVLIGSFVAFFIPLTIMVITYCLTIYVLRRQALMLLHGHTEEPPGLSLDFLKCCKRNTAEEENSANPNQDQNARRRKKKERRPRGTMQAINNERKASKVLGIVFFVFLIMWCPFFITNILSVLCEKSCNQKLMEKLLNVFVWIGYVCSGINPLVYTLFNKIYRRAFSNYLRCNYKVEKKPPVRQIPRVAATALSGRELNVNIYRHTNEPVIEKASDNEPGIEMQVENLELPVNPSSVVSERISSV

[2] = chemical stability of ITI-007 by HPLC over the seven-day study; type: physicochemical; settings: 7 days at 40° C./75% RH, normalized to content before the study
[3] = preliminary screen of dispersions by XRPD and appearance; type: physicochemical; settings: XRPD, as generated by lyophilization; ITI-007 free base/excipient
Procedure: X-ray powder diffraction (XRPD): The X-ray powder diffraction studies are performed using a PANalytical X'Pert PRO MPD diffractometer using an incident beam of Cu radiation produced using an Optix long, fine-focus source. An elliptically graded multilayer mirror is used to focus Cu Kα X-ray radiation through the specimen and onto the detector. Prior to analysis, a silicon specimen is analyzed to verify the observed position of the Si (111) peak (consistent with the NIST-certified position, NIST SM 640e). A specimen of the sample is sandwiched between 3-micron thick films and analyzed in transmission geometry. A beam-stop, short antiscatter extension, and antiscatter knife edge is used to minimize the background generated by the air. Soller slits for the incident and diffracted beams are used to minimize broadening from axial divergence. Diffraction patterns are collected using a scanning position-sensitive detector (X'Celerator) located 240 mm from the specimen.

[4] = solubility of ITI-007 free base in solvents; type: physicochemical
[5] = cited from earlier work
[6] = molecular target: H1 histaminergic receptors (Homo sapiens, UniProt P35367); settings: cited from earlier work
[7] = tested on: muscarinic receptors; settings: cited from earlier work
[8] = mDSC glass transition of dispersions; type: physicochemical; settings: single glass transition above 75° C., Yes/No
[9] = salt of U.S. Pat. No. 7,183,282

Sequence of H1 histaminergic receptors (P35367 whole entry): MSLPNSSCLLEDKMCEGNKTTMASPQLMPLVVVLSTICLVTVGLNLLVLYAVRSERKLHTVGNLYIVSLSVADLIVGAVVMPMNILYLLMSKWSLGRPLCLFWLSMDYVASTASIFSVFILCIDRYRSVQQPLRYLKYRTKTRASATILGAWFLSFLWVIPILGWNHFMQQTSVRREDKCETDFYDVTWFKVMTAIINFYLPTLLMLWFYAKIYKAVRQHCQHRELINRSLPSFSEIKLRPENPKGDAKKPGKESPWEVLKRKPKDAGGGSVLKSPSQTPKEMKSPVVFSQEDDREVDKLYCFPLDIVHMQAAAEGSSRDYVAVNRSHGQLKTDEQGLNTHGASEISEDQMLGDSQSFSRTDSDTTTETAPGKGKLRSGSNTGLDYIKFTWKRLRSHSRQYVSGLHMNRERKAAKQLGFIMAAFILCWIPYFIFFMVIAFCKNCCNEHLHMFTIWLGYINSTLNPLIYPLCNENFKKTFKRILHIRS

SMILES	binding [1]	% ITI-007 change by HPLC [2] [%]	X-ray Amorphous Solids? [3]	solubility ([4]; 2,2,2-trifluoroethanol (TFE), organic solvent or mixture) [mg/mL]	solubility ([4]; acetone, organic solvent or mixture) [mg/mL]	solubility ([4]; dioxane, organic solvent or mixture) [mg/mL]	solubility ([4]; ethanol, organic solvent or mixture) [mg/mL]	solubility ([4]; methanol, organic solvent or mixture) [mg/mL]	stability in solution ([4]; solutions in TFE)	solubility ([4]; tert-butanol/water mixtures, aqueous with cosolvent or surfactant or cyclodextrin) [mg/mL]	solubility in water ([5]; free base form)	binding [6]	binding [7]	Tg > 75° C. [8]	hygroscopicity [5, 9]	stability [5, 9]
CN1CCN2c3c(cccc31)[C@@H]1CN(CCCC(=O)c3ccc(F)cc3)CC[C@@H]12 [ITI-007, 1-(4-fluoro-phenyl)-4-((6bR,10aS)-3-methyl-2,3,6b,9,10,10a-hexahydro-1H,7H-pyrido[3′,4′:4,5]pyrrolo[1,2,3-de]quinoxalin-8-yl)-butan-1-one]	negligible binding	−5.97	No	> 50	> 50	> 50	> 50	> 50	rapidly discolor due to decomposition of the active	5 to 50 (≈ 12.7 to 127 mM)	poor solubility in water	negligible binding	negligible binding	No	–	–
CN1CCN2c3c(cccc31)C1CN(CCCC(=O)c3ccc(F)cc3)CCC12.Cl (stereo not shown) [hydrochloride salt form of ITI-007]	–	–	–	–	–	–	–	–	–	–	–	–	–	–	hygroscopic	poor stability
